Source: the supplement of paper PMC13207355

Legend:
Conditions in all cases: exposure time: 72 h
E13 [1] = patient-derived glioblastoma stem cells of classical subtype; test: surviving fraction (nuclei count normalised to DMSO); higher = more cells surviving (less toxic)
E21 [2] = patient-derived glioblastoma stem cells of mesenchymal subtype; test: as above
E28 [3] = patient-derived glioblastoma stem cells of classical subtype; test: as above
E34 [4] = patient-derived glioblastoma stem cells of proneural subtype; test: as above
E57 [5] = patient-derived glioblastoma stem cells of mesenchymal subtype; test: as above
FT3469 [6] = normal neural stem cell line; test: as above
E13 [7] = test: phenotypic distance (Euclidean, principal components) from DMSO controls (arbitrary units); higher = stronger morphological change
E21 [8] = test: as above
E28 [9] = test: as above
E34 [10] = test: as above
E57 [11] = test: as above
FT3469 [12] = test: as above
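Wherever phenotypic distance (Euclidean, principal components) from DMSO controls is given: cell Painting imaging in 384-well plates, CellProfiler features reduced to at least 20 principal components, Euclidean distance versus same-plate DMSO vehicle wells (0.1% v/v), median over six images per well.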
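Wherever surviving fraction (nuclei count normalised to DMSO) is given: nuclei counted by high-content imaging of Hoechst-stained cells in laminin-coated 384-well plates, relative to 0.1% DMSO vehicle wells, with staurosporine as cell-death control.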

Cc1cc(Nc2cc(CN3CCOCC3)c3nc(C)c(Cc4ccc(Cl)cc4F)n3n2)n[nH]1 [Gandotinib]
Conditions	phenotypic distance	surviving fraction
E13 [1], 4.1 nM	–	1.02
E13 [1], 12.3 nM	–	0.923
E13 [1], 37 nM	–	0.933
E13 [1], 111.1 nM	–	0.946
E13 [1], 333.3 nM	–	0.818
E13 [1], 1000 nM	–	0.791
E13 [1], 3000 nM	–	0.626
E13 [7], 4.1 nM	0.676	–
E13 [7], 12.3 nM	0.87	–
E13 [7], 37 nM	0.987	–
E13 [7], 111.1 nM	1.47	–
E13 [7], 333.3 nM	1.57	–
E13 [7], 1000 nM	1.9	–
E13 [7], 3000 nM	2.7	–
E21 [2], 4.1 nM	–	1.07
E21 [2], 12.3 nM	–	1.02
E21 [2], 37 nM	–	1.03
E21 [2], 111.1 nM	–	0.918
E21 [2], 333.3 nM	–	0.724
E21 [2], 1000 nM	–	0.505
E21 [2], 3000 nM	–	0.164
E21 [8], 4.1 nM	1.3	–
E21 [8], 12.3 nM	0.9953	–
E21 [8], 37 nM	1.34	–
E21 [8], 111.1 nM	1.92	–
E21 [8], 333.3 nM	2.89	–
E21 [8], 1000 nM	4.83	–
E21 [8], 3000 nM	9.25	–
E28 [3], 4.1 nM	–	1.03
E28 [3], 12.3 nM	–	0.979
E28 [3], 37 nM	–	1.06
E28 [3], 111.1 nM	–	1.02
E28 [3], 333.3 nM	–	0.865
E28 [3], 1000 nM	–	0.673
E28 [3], 3000 nM	–	0.335
E28 [9], 4.1 nM	0.402	–
E28 [9], 12.3 nM	0.536	–
E28 [9], 37 nM	0.979	–
E28 [9], 111.1 nM	1.01	–
E28 [9], 333.3 nM	1.15	–
E28 [9], 1000 nM	1.63	–
E28 [9], 3000 nM	3.72	–
E34 [4], 4.1 nM	–	0.94
E34 [4], 12.3 nM	–	0.77
E34 [4], 37 nM	–	0.6589
E34 [4], 111.1 nM	–	0.511
E34 [4], 333.3 nM	–	0.44
E34 [4], 1000 nM	–	0.4
E34 [4], 3000 nM	–	0.316
E34 [10], 4.1 nM	1.52	–
E34 [10], 12.3 nM	2.31	–
E34 [10], 37 nM	3.63	–
E34 [10], 111.1 nM	5.44	–
E34 [10], 333.3 nM	7.1	–
E34 [10], 1000 nM	7.41	–
E34 [10], 3000 nM	7.42	–
E57 [5], 4.1 nM	–	1.061
E57 [5], 12.3 nM	–	0.946
E57 [5], 37 nM	–	0.903
E57 [5], 111.1 nM	–	0.781
E57 [5], 333.3 nM	–	0.534
E57 [5], 1000 nM	–	0.42
E57 [5], 3000 nM	–	0.193
E57 [11], 4.1 nM	0.653	–
E57 [11], 12.3 nM	0.688	–
E57 [11], 37 nM	1.33	–
E57 [11], 111.1 nM	1.76	–
E57 [11], 333.3 nM	2.18	–
E57 [11], 1000 nM	2.93	–
E57 [11], 3000 nM	5.26	–
FT3469 [6], 4.1 nM	–	0.931
FT3469 [6], 12.3 nM	–	0.889
FT3469 [6], 37 nM	–	0.969
FT3469 [6], 111.1 nM	–	0.97
FT3469 [6], 333.3 nM	–	0.9328
FT3469 [6], 1000 nM	–	0.806
FT3469 [6], 3000 nM	–	0.584
FT3469 [12], 4.1 nM	0.44	–
FT3469 [12], 12.3 nM	0.627	–
FT3469 [12], 37 nM	0.479	–
FT3469 [12], 111.1 nM	1.67	–
FT3469 [12], 333.3 nM	0.785	–
FT3469 [12], 1000 nM	0.863	–
FT3469 [12], 3000 nM	2.05	–

CN1CCC(NC(=O)c2cc(-c3c(O)cc(O)cc3Oc3ccc([N+](=O)[O-])cc3)on2)CC1 [NMS-E973]
Conditions	phenotypic distance	surviving fraction
E13 [1], 4.1 nM	–	0.964
E13 [1], 12.3 nM	–	0.953
E13 [1], 37 nM	–	0.944
E13 [1], 111.1 nM	–	0.93
E13 [1], 333.3 nM	–	0.219
E13 [1], 1000 nM	–	0.192
E13 [1], 3000 nM	–	0.21
E13 [7], 4.1 nM	0.577	–
E13 [7], 12.3 nM	0.562	–
E13 [7], 37 nM	0.639	–
E13 [7], 111.1 nM	1.31	–
E13 [7], 333.3 nM	4.489	–
E13 [7], 1000 nM	5.34	–
E13 [7], 3000 nM	5.62	–
E21 [2], 4.1 nM	–	0.891
E21 [2], 12.3 nM	–	0.959
E21 [2], 37 nM	–	0.926
E21 [2], 111.1 nM	–	0.817
E21 [2], 333.3 nM	–	0.416
E21 [2], 1000 nM	–	0.257
E21 [2], 3000 nM	–	0.116
E21 [8], 4.1 nM	0.751	–
E21 [8], 12.3 nM	0.626	–
E21 [8], 37 nM	0.843	–
E21 [8], 111.1 nM	1.82	–
E21 [8], 333.3 nM	4.147	–
E21 [8], 1000 nM	5.3	–
E21 [8], 3000 nM	5.82	–
E28 [3], 4.1 nM	–	1.01
E28 [3], 12.3 nM	–	0.913
E28 [3], 37 nM	–	0.909
E28 [3], 111.1 nM	–	0.657
E28 [3], 333.3 nM	–	0.31
E28 [3], 1000 nM	–	0.0561
E28 [3], 3000 nM	–	0.0288
E28 [9], 4.1 nM	0.607	–
E28 [9], 12.3 nM	0.671	–
E28 [9], 37 nM	0.573	–
E28 [9], 111.1 nM	1.19	–
E28 [9], 333.3 nM	2.09	–
E28 [9], 1000 nM	5.08	–
E28 [9], 3000 nM	6.81	–
E34 [4], 4.1 nM	–	0.907
E34 [4], 12.3 nM	–	0.921
E34 [4], 37 nM	–	0.855
E34 [4], 111.1 nM	–	0.804
E34 [4], 333.3 nM	–	0.45
E34 [4], 1000 nM	–	0.289
E34 [4], 3000 nM	–	0.0598
E34 [10], 4.1 nM	0.575	–
E34 [10], 12.3 nM	0.675	–
E34 [10], 37 nM	0.615	–
E34 [10], 111.1 nM	1.12	–
E34 [10], 333.3 nM	1.98	–
E34 [10], 1000 nM	3.12	–
E34 [10], 3000 nM	5.65	–
E57 [5], 4.1 nM	–	0.941
E57 [5], 12.3 nM	–	1.01
E57 [5], 37 nM	–	0.9484
E57 [5], 111.1 nM	–	1.01
E57 [5], 333.3 nM	–	0.373
E57 [5], 1000 nM	–	0.0919
E57 [5], 3000 nM	–	0.0144
E57 [11], 4.1 nM	0.456	–
E57 [11], 12.3 nM	0.414	–
E57 [11], 37 nM	0.335	–
E57 [11], 111.1 nM	1.07	–
E57 [11], 333.3 nM	2.57	–
E57 [11], 1000 nM	3.42	–
E57 [11], 3000 nM	4.94	–
FT3469 [6], 4.1 nM	–	0.918
FT3469 [6], 12.3 nM	–	0.951
FT3469 [6], 37 nM	–	0.975
FT3469 [6], 111.1 nM	–	0.798
FT3469 [6], 333.3 nM	–	0.677
FT3469 [6], 1000 nM	–	0.4901
FT3469 [6], 3000 nM	–	0.4
FT3469 [12], 4.1 nM	2.07	–
FT3469 [12], 12.3 nM	1.21	–
FT3469 [12], 37 nM	1.04	–
FT3469 [12], 111.1 nM	1.74	–
FT3469 [12], 333.3 nM	1.89	–
FT3469 [12], 1000 nM	2.79	–
FT3469 [12], 3000 nM	3.7	–
